Assays:
JAK1 JH1 = JAK1 JH1 (Homo sapiens (Human), UniProt P23458); assay: Competitive binding assay (kinase-tagged phage, qPCR), JAK1 JH1
Description: For most assays, kinase-tagged T7 phage strains were prepared in an E. coli host derived from the BL21 strain. E. coli were grown to log-phase and infected with T7 phage and incubated with shaking at 32° C. until lysis. The lysates were centrifuged and filtered to remove cell debris. The remaining kinases were produced in HEK-293 cells and subsequently tagged with DNA for qPCR detection. Streptavidin coated magnetic beads were treated with biotinylated small molecule ligands for 30 minutes at room temperature to generate affinity resins for kinase assays. The liganded beads were blocked with excess biotin and washed with blocking buffer (SeaBlock (Pierce), 1% BSA, 0.05% Tween 20, 1 mM DTT) to remove unbound ligand and to reduce non-specific binding. […] Test compounds were prepared as 111X stocks in 100% DMSO. Dissociation constants (Kds) were determined using an 11-point 3-fold compound dilution series with three DMSO control points. All compounds for Kd measurements are distributed by acoustic transfer (non-contact dispensing) in 100% DMSO. The compounds were then diluted directly into the assays such that the final concentration of DMSO was 0.9%. All reactions performed in polypropylene 384-well plate. Each was a final volume of 0.02 ml. The assay plates were incubated at room temperature with shaking for 1 hour and the affinity beads were washed with wash buffer (1×PBS, 0.05% Tween 20). The beads were then re-suspended in elution buffer (1×PBS, 0.05% Tween 20, 0.5 μM nonbiotinylated affinity ligand) and incubated at room temperature with shaking for 30 minutes. The kinase concentration in the eluates was measured by qPCR.
An 11-point 3-fold serial dilution of each test compound was prepared in 100% DMSO at 100× final test concentration and subsequently diluted to 1× in the assay (final DMSO concentration=1%). Most Kds were determined using a compound top concentration=30,000 nM. If the initial Kd determined was <0.5 nM (the lowest concentration tested), the measurement was repeated with a serial dilution starting at a lower top concentration.
Binding constants (Kds) were calculated with a standard dose-response curve using the Hill equation: […]
The Hill Slope was set to −1.
Curves were fitted using a non-linear least square fit with the Levenberg-Marquardt algorithm.

[1] = Plasma protein binding test, monkey; assay type: in vitro ADME
Description: (§1) • 1. Test compound and control compound were dissolved in dimethyl sulfoxide (DMSO) to achieve 10 mM stock solutions. DMSO working solutions were prepared at 400 μM. To prepare the loading matrix, compound working solutions (5 μL) were added in a 1:200 ratio to blank matrix (995 μL), and mixed thoroughly. • 2. To prepare the time zero (TO) samples to be used for recovery determination, 50 μL aliquots of loading matrix were transferred in triplicate to the sample collection plate. The samples were immediately matched with opposite blank buffer to obtain a final volume of 100 μL of 1:1 matrix/dialysis buffer (v/v) in each well. 500 μL of stop solution were added to these TO samples. They were then stored at 2-8° C. pending further processes along with other post-dialysis samples. • 3. To load the dialysis device, an aliquot of 150 μL of the loading matrix was transferred to the donor side of each dialysis well in triplicate, and 150 μL of the dialysis buffer was loaded to the receiver side of the well. The dialysis plate was placed in a humidified incubator at 37° C. with 5% CO2 on a shaking platform that rotated slowly (about 100 rpm) for 4 hours • 4. At the end of the dialysis, aliquots of 50 μL of samples were taken from both the buffer side and the matrix side of the dialysis device. […]
(§2) The % Unbound and % Bound were calculated using the following equations: […]

[2] = Plasma protein binding test, rat; assay type: in vitro ADME
Description: as §1, §2

JAK1/JAK2 pathway = assay: Selectivity: JAK1/JAK2 pathway, IFN-γ-induced p-STAT1 in HT-29 cells, western blot; assay type: cell-based; conditions: IFN-γ 100 ng/mL
Description: HT-29 cells were digested by trypsin and suspended in DMEM medium and counted. The tested compounds were added into 6 well plates (400 000/per well) for 2 hours, then IFN-γ (100 ng/mL) was added to stimulate cells for 30 minutes. The cells were collected and lysed with protein lysate. The protein was quantitatively tested by BCA kit. Finally, p-STAT1/STAT1 and internal reference protein β-actin were detected by western blot.

TYK2/JAK2 pathway = assay: Selectivity: TYK2/JAK2 pathway, IL-12-induced p-STAT4 in mouse spleen cells, western blot; assay type: cell-based, mice
Description: The spleen of mice was isolated and ground into single cells with bent tweezers. The single cells of the spleen were centrifuged for 5 minutes (400 g), and erythrocytes were lysed with ACK solution and neutralized in 1640 medium, centrifuged for 5 minutes (400 g), and then re-suspended in 1640 medium. The spleen single cell suspension was counted and incubated to a 6-well plate (5 million/well), the compound to be tested was added for 2 hours, and then IL-12 (50 ng/mL) was added to stimulate cells for 1 h. The cells were collected and lysed with protein lysate. The protein was quantitatively tested by BCA kit. Finally, p-STAT4/STAT4 and internal reference protein β-actin were detected by western blot.

JAK2/JAK2 pathway = assay: Selectivity: JAK2/JAK2 pathway, TPO-induced p-STAT3 in MEG-1 cells, western blot; assay type: cell-based; conditions: TPO 100 ng/mL
Description: MEG-1 cells were digested by trypsin, re-suspended in 1640 medium and counted. The compounds to be measured were added to 6 well plates (1 million/per well) for 2 hours, and then TPO (final concentration: 100 ng/mL) was added to stimulate cells for 30 minutes. The cells were collected and lysed with protein lysate. The protein was quantitatively tested by BCA kit. Finally, p-STAT3/STAT3 and internal reference protein β-actin were detected by western blot.

Sequence of JAK1 JH1 (P23458 875-1153): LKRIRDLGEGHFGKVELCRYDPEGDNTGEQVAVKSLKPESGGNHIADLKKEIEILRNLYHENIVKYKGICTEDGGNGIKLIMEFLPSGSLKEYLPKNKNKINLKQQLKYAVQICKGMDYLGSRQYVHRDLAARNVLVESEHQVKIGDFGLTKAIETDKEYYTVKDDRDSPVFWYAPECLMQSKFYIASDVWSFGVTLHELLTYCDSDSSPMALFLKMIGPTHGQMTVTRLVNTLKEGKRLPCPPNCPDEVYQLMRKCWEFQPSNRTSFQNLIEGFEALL

Structure (SMILES)	Kd (JAK1 JH1)	fraction unbound at 4 h, 2 μM [1]	fraction unbound at 4 h, 2 μM [2]	effect on downstream STAT1 phosphorylation induced by IFN-γ (JAK1/JAK2 pathway)	inhibition of TYK2/JAK2 pathway compared with BMS986165 (TYK2/JAK2 pathway; IL-12)	inhibition of downstream STAT4 phosphorylation induced by IL-12 (TYK2/JAK2 pathway; IL-12 50 ng/mL, western blot)	effect on TPO-induced downstream STAT3 phosphorylation (JAK2/JAK2 pathway)
CCC(=O)c1cnc(NC(=O)C2CC2)cc1Nc1cccc(-c2cc(P(C)(C)=O)n(C)n2)c1OC [Compound B2, N-(4-((3-(5-(dimethylphosphoryl)-1-methyl-1H-pyrazol-3-yl)-2-methoxyphenyl)amino)-5-propionylpyridin-2-yl)cyclopropanecarboxamide]	> 30 µM	0.042	0.055	–	–	–	–
CCC(=O)c1cnc(NC(=O)C2CC2)cc1Nc1cccc(-c2cc(P(=O)(C3CC3)C3CC3)n(C)n2)c1OC [Compound B37, N-(4-((3-(5-(dicyclopropylphosphoryl)-1-methyl-1H-pyrazol-3-yl)-2-methoxyphenyl)amino)-5-propionylpyridin-2-yl)cyclopropanecarboxamide]	> 30 µM	–	–	no effect	better than BMS986165	effectively inhibit	no effect
[2H]C([2H])([2H])NC(=O)c1nnc(NC(=O)C2CC2)cc1Nc1cccc(-c2cc(P(=O)(C3CC3)C3CC3)n(C)n2)c1OC [Compound B41, 6-(cyclopropanecarboxamido)-4-((3-(5-(dicyclopropylphosphoryl)-1-methyl-1H-pyrazol-3-yl)-2-methoxyphenyl)amino)-N-(methyl-d3)pyridazine-3-carboxamide]	–	0.076	0.045	–	–	–	no effect
